Measured values as given in US20090325978A1, “STABLE LYOPHILIZED PREPARATION” (priority 2006, published 2009).

Columns and labels:
[1] = solubility of the compound represented by formula (1) in pH regulating solution, HPLC; format: physicochemical; conditions: thermodynamic from solid, 50 mM citric acid pH regulator with sucrose and polyethylene glycol 600, 1 hour at 5° C.
Description: 0.525 g of citric acid monohydrate was dissolved in injection-use distilled water, and a sodium hydroxide solution was used to adjust the pH while 5 g of sucrose and 1 g of polyethylene glycol 600 (stabilizer) were dissolved, thereby preparing 50 mL of various 50 mM pH regulators (with a pH of 5.6, 5.8, 6.0, 6.2, 6.4, or 6.6) containing sucrose and the stabilizer. 3 mL of the pH regulating solution thus prepared was put into a 5 mL vial containing approximately 9 mg of the compound represented by formula (1), and this was stored for 1 hour at 5° C. while being stirred. Thereafter, the solution (including a suspension) was filtered (0.22 μm filter), the first 1 mL of the filtrate was discarded, and the solution thus obtained was subjected to high-performance liquid chromatography (HPLC) to measure the concentration of the compound represented by formula (1), which was termed the solubility of the compound represented by formula (1). The pH of the solution was also measured at the same time.

[2] = formulation study of the compound represented by formula (1): stability and crystal dissolution; format: physicochemical
[3] = test system: VEGF (vascular endothelial growth factor) production; conditions: low-oxygen state in vitro; cited from earlier work
solid tumor cell = conditions: in vivo; cited from earlier work
[4] = pKa of the compound represented by formula (1); format: physicochemical

solubility at 1 h ([1]; aqueous with cosolvent or surfactant or cyclodextrin, pH 5.79): > 2440 µg/mL | solubility at 1 h ([1]; aqueous with cosolvent or surfactant or cyclodextrin, pH 5.99): > 2310 µg/mL | solubility at 1 h ([1]; aqueous with cosolvent or surfactant or cyclodextrin, pH 6.51): > 2720 µg/mL | solubility at 1 h ([1]; aqueous with cosolvent or surfactant or cyclodextrin, pH 6.81): 2570 µg/mL | solubility at 1 h ([1]; aqueous with cosolvent or surfactant or cyclodextrin, pH 7.04): 1800 µg/mL | solubility at 1 h ([1]; pH 6.2, aqueous with cosolvent or surfactant or cyclodextrin, pH 6.20): > 2260 µg/mL | stability in the form of a crystalline powder [2]: good stability | stability in solution ([2]; formulation of an injection): not sufficiently stable | crystal dissolution ([2]; packed powder): slow | pKa [4]: ~7.9
Compound: CCC(O)C(C)C1OC1CC(C)(O)/C=C/C=C(\C)C1OC(=O)CC(O)CCC(C)(O)C(OC(=O)N2CCN(C3CCCCCC3)CC2)/C=C/C1C (stereo not drawn) [compound represented by formula (1), (8E,12E,14E)-7-((4-cycloheptylpiperazin-1-yl)carbonyl)oxy-3,6,16,21-tetrahydroxy-6, 10,12,16,20-pentamethyl-18,19-epoxytricosa-8,12,14-trien-11-olide]
action on VEGF production [3]: suppressing VEGF (vascular endothelial growth factor) production | action on solid tumor cell proliferation (solid tumor cell): suppressing solid tumor cell proliferation
